The test system of data set [1] is food intake. The experiment in a line: Assay (I) efficacy testing on appetite (food intake), ad libitum fed rat model. Type of data set: in vivo, Sprague Dawley (SD) rats. The note with it: 3 nmol/kg. Summed up:
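Sprague Dawley rats (200–250 g), single-housed under reversed light cycle with free food and water, got one ip, po or sc dose of 0.01–3 mg/kg just before lights-off. Individual food intake recorded hourly for 7 h, then at 24 h and sometimes 48 h; groups of 5–8, Grubbs outliers excluded.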

The nature of data set [2]: Assay (III) ThT fibrillation assay for physical stability. Conditions: ThT fibrillation assay. Type of data set: physicochemical. Summed up:
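Freshly prepared formulations, pH-adjusted, with 1 μM ThT; four or eight replicates incubated at 37 °C under 960 rpm orbital shaking. Fluorescence (ex 444/em 485 nm) read every 20 min; […]. Peptide concentration measured by RP-HPLC before and after the run.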

Starred links: 1 amine or outer side, 2 acyl side, 3 side chain; linkers in the order of their positions; H or OH if unused. Positions of bridges follow the written chain, without caps; N, C: chain ends. Residues, ends and D or L forms follow the SMILES beside them. *: point of attachment. C20 diacid = O=C(O)CCCCCCCCCCCCCCCCCCC(=O)*; C18 diacid = O=C(O)CCCCCCCCCCCCCCCCC(=O)*; γGlu = O=C(O)[C@H](CCC(=O)[*:2])N[*:1]

On to `CC[C@H](C)[C@H](NC(=O)[C@@H]1CCCN1C(=O)CNC(=O)[C@H](Cc1ccccc1)NC(=O)[C@H](CC(N)=O)NC(=O)[C@H](CC(N)=O)NC(=O)[C@H](CO)NC(=O)[C@H](CO)NC(=O)[C@H](Cc1c[nH]cn1)NC(=O)[C@H](Cc1c[nH]cn1)NC(=O)[C@H](CC(C)C)NC(=O)[C@H](Cc1ccccc1)NC(=O)[C@H](CCC(=O)O)NC(=O)[C@H](C)NC(=O)[C@H](CC(C)C)NC(=O)[C@H](CCCNC(=N)N)NC(=O)[C@H](CCC(N)=O)NC(=O)[C@@H](NC(=O)[C@H](C)NC(=O)[C@@H]1CSSC[C@H](NC(=O)[C@H](CCCCN)NC(=O)[C@H](CCC(=O)O)NC(=O)CC[C@H](NC(=O)CCCCCCCCCCCCCCCCCCC(=O)O)C(=O)O)C(=O)N[C@@H](CC(N)=O)C(=O)N[C@@H]([C@@H](C)O)C(=O)N[C@@H](C)C(=O)N[C@@H]([C@@H](C)O)C(=O)N1)[C@@H](C)O)C(=O)N[C@@H](CC(C)C)C(=O)N1CCC[C@H]1C(=O)N1CCC[C@H]1C(=O)N[C@H](C(=O)N[C@@H](CC(N)=O)C(=O)N[C@H](C(=O)NCC(=O)N[C@@H](CO)C(=O)N[C@@H](Cc1c[nH]cn1)C(=O)N[C@H](C(=O)N[C@@H](Cc1ccc(O)cc1)C(N)=O)[C@@H](C)O)C(C)C)[C@@H](C)O` [Example 56, N-alpha-[(S)-4-Carboxy-4-(19-carboxynonadecanoylamino)butyryl]-Glu-[Glu14,His17,His35]-pramlintide] ({C20 diacid-γGlu}-EKCNTATCATQRLAEFLHHSSNNFGPILPPTNVGSHTY-NH2; disulfide 3-8 (inferred)), for which, in data set [1], the “Food intake reduction 0-24 h 3 nmol/kg (%)” value was 46% and the “Food intake reduction 24-48 h 3 nmol/kg (%)” value was 21%. The “ThT pH 4.0 lag time (h)” value in data set [2] worked out at 16 h.

On to `CC[C@H](C)[C@H](NC(=O)[C@@H]1CCCN1C(=O)CNC(=O)[C@H](Cc1ccccc1)NC(=O)[C@H](CC(N)=O)NC(=O)[C@H](CC(N)=O)NC(=O)[C@H](CO)NC(=O)[C@H](CO)NC(=O)[C@H](Cc1c[nH]cn1)NC(=O)[C@H](CCCNC(=N)N)NC(=O)[C@H](CC(C)C)NC(=O)[C@H](Cc1ccccc1)NC(=O)[C@H](CCC(=O)O)NC(=O)[C@H](C)NC(=O)[C@H](CC(C)C)NC(=O)[C@H](CCCNC(=N)N)NC(=O)[C@H](CCC(N)=O)NC(=O)[C@@H](NC(=O)[C@H](C)NC(=O)[C@@H]1CSSC[C@H](NC(=O)[C@H](CCCCN)NC(=O)[C@H](Cc2c[nH]cn2)NC(=O)CC[C@H](NC(=O)CCCCCCCCCCCCCCCCC(=O)O)C(=O)O)C(=O)N[C@@H](CC(N)=O)C(=O)N[C@@H]([C@@H](C)O)C(=O)N[C@@H](C)C(=O)N[C@@H]([C@@H](C)O)C(=O)N1)[C@@H](C)O)C(=O)N[C@@H](CC(C)C)C(=O)N1CCC[C@H]1C(=O)N1CCC[C@H]1C(=O)N[C@H](C(=O)N[C@@H](CC(N)=O)C(=O)N[C@H](C(=O)NCC(=O)N[C@@H](CO)C(=O)N[C@@H](Cc1c[nH]cn1)C(=O)N[C@H](C(=O)N[C@@H](Cc1ccc(O)cc1)C(N)=O)[C@@H](C)O)C(C)C)[C@@H](C)O` [Example 71, N-alpha-[(S)-4-Carboxy-4-(17-carboxyheptadecanoylamino)butyryl]-His-[Glu14,Arg17,His35]-pramlintide] ({C18 diacid-γGlu}-HKCNTATCATQRLAEFLRHSSNNFGPILPPTNVGSHTY-NH2; disulfide 3-8 (inferred); C-terminus assumed), for which, in data set [1], the “Food intake reduction 0-24 h 3 nmol/kg (%)” value is given as 10% and the “Food intake reduction 24-48 h 3 nmol/kg (%)” value is 0%. For the same compound, in data set [2], the “ThT pH 4.0 lag time” value is listed as over 45 h and the “ThT pH 4.0 lag time (h)” value was over 45 h.

For the origin of these results see patent publication US8722849B2, “Polypeptides” (Novo Nordisk A/S, priority 2011, dated 2014).
